# ChEMBL document CHEMBL2073835, “Apical uptake of organic cations by human intestinal Caco-2 cells: putative involvement of ASF transporters” (Naunyn Schmiedebergs Arch Pharmacol, 2001)
# Biological target: T1, Solute carrier family 22 member 3 (Homo sapiens, UniProt O75751)
# T1 sequence (O75751 whole entry): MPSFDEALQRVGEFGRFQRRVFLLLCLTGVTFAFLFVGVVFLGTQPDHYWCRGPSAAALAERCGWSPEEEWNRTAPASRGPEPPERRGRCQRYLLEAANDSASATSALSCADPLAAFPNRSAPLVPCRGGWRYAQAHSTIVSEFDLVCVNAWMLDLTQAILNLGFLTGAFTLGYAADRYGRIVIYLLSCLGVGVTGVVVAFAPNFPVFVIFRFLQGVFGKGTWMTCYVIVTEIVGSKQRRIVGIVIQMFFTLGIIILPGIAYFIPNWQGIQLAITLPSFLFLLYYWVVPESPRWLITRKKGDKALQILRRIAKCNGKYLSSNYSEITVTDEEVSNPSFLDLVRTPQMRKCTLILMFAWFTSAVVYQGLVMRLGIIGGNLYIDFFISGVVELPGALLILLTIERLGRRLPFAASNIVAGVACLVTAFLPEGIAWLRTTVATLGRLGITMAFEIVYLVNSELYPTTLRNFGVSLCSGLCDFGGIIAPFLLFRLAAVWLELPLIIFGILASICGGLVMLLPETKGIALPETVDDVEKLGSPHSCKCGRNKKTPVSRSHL
# Experiment: TP_TRANSPORTER: inhibition of MPP+ uptake (MPP+: 0.2 uM) in OCT3-expressing HEK293 cells
# Format: functional, cell-based
row,IC50 [µM],SMILES
1,79.3,Clc1cccc(Cl)c1N=C1NCCN1 [CLONIDINE]
2,1.76,CC[n+]1c(CC2C=C(C)N=C(c3ccccc3)N2C)ccc2ccccc21 (stereo not drawn) [Cyanine-863]
3,10300,CC[N+](CC)(CC)CC [TETRYLAMMONIUM]
